Results published in PubChem BioAssay (NCI).
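Results reflect a 48-hour exposure of cells in 96-well plates to compound at five concentrations. The concentration for 50% growth inhibition is given as GI50. TGI: concentration producing complete growth inhibition.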

Assays:
Assay in all cases: growth of human tumour cells (NCI), 48 h
[1] = test system: SF-295 CNS
[2] = test system: RXF 393 renal
[3] = test system: 786-0 renal
[4] = test system: HCT-116 colon
[5] = test system: CAKI-1 renal
[6] = test system: SNB-75 CNS
[7] = test system: T-47D breast
[8] = test system: NCI-H522 lung
[9] = test system: LOX IMVI melanoma
[10] = test system: HOP-62 NSCLC
[11] = test system: TK-10 renal
[12] = test system: HOP-92 NSCLC
[13] = test system: SK-MEL-2 melanoma
[14] = test system: SN12C renal
[15] = test system: CCRF-CEM leukemia
[16] = test system: OVCAR-4 ovarian
[17] = test system: BT-549 breast
[18] = test system: OVCAR-5 ovarian
[19] = test system: HCT-15 colon
[20] = test system: K-562 leukemia
[21] = test system: SF-539 CNS
[22] = test system: RPMI-8226 leukemia
[23] = test system: COLO 205 colon
[24] = test system: MALME-3M melanoma
[25] = test system: U251 CNS
[26] = test system: EKVX NSCLC
[27] = test system: HCC-2998 colon
[28] = test system: M14 melanoma
[29] = test system: HL-60(TB) leukemia
[30] = test system: ACHN renal
[31] = test system: OVCAR-8 ovarian
[32] = test system: SW-620 colon
[33] = test system: NCI-H226 lung
[34] = test system: UACC-62 melanoma
[35] = test system: NCI/ADR-RES ovarian
[36] = test system: KM12 colon
[37] = test system: OVCAR-3 ovarian
[38] = test system: SK-MEL-28 melanoma
[39] = test system: MCF7 breast
[40] = test system: HT29 colon
[41] = test system: UACC-257 melanoma
[42] = test system: SNB-19 CNS
[43] = test system: PC-3 prostate
[44] = test system: DU-145 prostate
[45] = test system: SF-268 CNS
[46] = test system: SK-MEL-5 melanoma
[47] = test system: MOLT-4 leukemia
[48] = test system: NCI-H23 lung
[49] = test system: A498 renal
[50] = test system: SR leukemia
[51] = test system: SK-OV-3 ovarian
[52] = test system: IGROV1 ovarian
[53] = test system: NCI-H460 lung
[54] = test system: MDA-MB-435
[55] = test system: A549 NSCLC
[56] = test system: HS 578T breast
[57] = test system: MDA-MB-231 breast
[58] = test system: UO-31 renal

With `CCNC(=O)c1noc(-c2cc(C(C)C)c(O)cc2O)c1-c1ccc(CN2CCOCC2)cc1` the GI50 [1] was 28.7 nM, the TGI [1] was 11.2 µM and the GI50 [2] was 25.7 nM. For the same molecule, the TGI [2] was 17.8 µM, the GI50 [3] was 1980 nM and the TGI [3] was 31.5 µM. It also gave a GI50 [4] of 31.3 nM, a TGI [4] of 15.5 µM and a GI50 [5] of 59 nM. For the same molecule, the TGI [5] was over 100 µM, the GI50 [6] was 4.51 µM and the TGI [6] was 55.8 µM. It also gave a GI50 [7] of 38.2 nM, a TGI [7] of 47.8 µM and a GI50 [8] of 33.3 nM. The TGI [8] was 13.6 µM, the GI50 [9] was 15.9 nM and the TGI [9] was 76.5 nM. The GI50 [10] was 53.2 nM, the TGI [10] was 29.4 µM and the GI50 [11] was 23.3 nM. The TGI [11] was 14.8 µM, the GI50 [12] was 25.2 nM and the TGI [12] was 73.8 nM. It also gave a GI50 [13] of 31.1 nM, a TGI [13] of 8.74 µM and a GI50 [14] of 70.7 nM. For the same molecule, the TGI [14] was over 100 µM, the GI50 [15] was 32.1 nM and the TGI [15] was over 75.4 µM. It also gave a GI50 [16] of 10.9 µM, a TGI [16] of over 100 µM and a GI50 [17] of 8.36 µM. The TGI [17] was 30.4 µM, the GI50 [18] was 63.1 nM and the TGI [18] was 29.3 µM. For the same molecule, the GI50 [19] was 38.8 nM, the TGI [19] was 19.9 µM and the GI50 [20] was under 17.2 nM. It also gave a TGI [20] of over 46.3 µM, a GI50 [21] of 66.2 nM and a TGI [21] of 26.3 µM. For the same molecule, the GI50 [22] was 42.8 nM, the TGI [22] was 23.1 µM and the GI50 [23] was 78.7 nM. The TGI [23] was 5.64 µM, the GI50 [24] was 25 nM and the TGI [24] was 12.1 µM. It also gave a GI50 [25] of under 13.1 nM, a TGI [25] of 15.5 µM and a GI50 [26] of 5.21 µM. For the same molecule, the TGI [26] was over 100 µM, the GI50 [27] was 26.7 nM and the TGI [27] was 1050 nM. The GI50 [28] was 38.4 nM, the TGI [28] was 18.6 µM and the GI50 [29] was 24 nM. For the same molecule, the TGI [29] was 1170 nM, the GI50 [30] was 37.3 nM and the TGI [30] was over 100 µM. The GI50 [31] was 42.3 nM, the TGI [31] was 28.9 µM and the GI50 [32] was under 10 nM. It also gave a TGI [32] of 23.9 µM, a GI50 [33] of 40.9 nM and a TGI [33] of 26.6 µM. It also gave a GI50 [34] of 33.3 nM, a TGI [34] of 4.92 µM and a GI50 [35] of 313 nM. For the same molecule, the TGI [35] was 44.1 µM, the GI50 [36] was 20.3 nM and the TGI [36] was 74.1 nM. The GI50 [37] was 52.9 nM, the TGI [37] was 19.1 µM and the GI50 [38] was 55 nM. It also gave a TGI [38] of 22.7 µM, a GI50 [39] of under 19.4 nM and a TGI [39] of over 55 µM. For the same molecule, the GI50 [40] was 34.3 nM, the TGI [40] was 2090 nM and the GI50 [41] was 25.9 nM. It also gave a TGI [41] of 159 nM, a GI50 [42] of 76.2 nM and a TGI [42] of over 100 µM. For the same molecule, the GI50 [43] was 64.8 nM, the TGI [43] was 66.6 µM and the GI50 [44] was under 22.2 nM. For the same molecule, the TGI [44] was 21.1 µM, the GI50 [45] was 2440 nM and the TGI [45] was 34.9 µM. It also gave a GI50 [46] of 47 nM, a TGI [46] of 14.2 µM and a GI50 [47] of 32.6 nM. The TGI [47] was over 100 µM, the GI50 [48] was 53.5 nM and the TGI [48] was 27.2 µM. The GI50 [49] was 41.8 nM, the TGI [49] was 17.5 µM and the GI50 [50] was 40.7 nM. For the same molecule, the TGI [50] was 29 µM, the GI50 [51] was under 10 nM and the TGI [51] was 22.3 µM. The GI50 [52] was under 22.4 nM, the TGI [52] was over 100 µM and the GI50 [53] was under 15.2 nM. The TGI [53] was 14.6 µM, the GI50 [54] was under 16.7 nM and the TGI [54] was 19.5 µM. For the same molecule, the GI50 [55] was 22.1 nM, the TGI [55] was 22.7 µM and the GI50 [56] was 2470 nM. It also gave a TGI [56] of 56.9 µM, a GI50 [57] of 74.7 nM and a TGI [57] of 15.7 µM. The GI50 [58] was 45.7 nM and the TGI [58] was over 100 µM.
